In patent publication US20160074390A1, “HUMAN DOSING OF PHOSPHATASE INHIBITOR” (Lixte Biotechnology, Inc., priority 2014, published 2016):
Several values for one entry are separate records, joined by “and”; a condition that tells them apart may be missing. Identical values can stand only once. Like-named read-outs stand apart in the source and are kept apart here.

Experiments:
male Fischer rats = test: Non-GLP dose ranging toxicity study, daily IV infusion x4 days (NCI)
Method: (§1) In a non-GLP dose ranging study in male Fischer rats conducted by the NCI, LB-100 was administered by daily intravenous (IV) infusion at 0.5, 0.75 and 1.5 mg/kg/day for 4 consecutive days.

[1] = as above; conditions: male, Fischer, rat, in vivo, iv
Method: as §1

beagle dogs = test: Non-GLP dose ranging toxicity study, IV every 4 days x4 doses; type: in vivo, dog
in vivo = conditions: beagle, dog, 0.15 mg/kg
[2] = system: HeLa cells, OS-17, MKN28, MKN45, MGC803, and SGC7901 cells; test: Growth of Mad2-overexpressing cell lines in vitro; type: cell-based, human; conditions: all cell lines; present-tense example
Method: Compound LB-100 inhibits PP2A phosphatase in cancer cells which in turn induces Mad-2 phosphorylation while suppressing Mad-2 protein levels. In order to characterize the effects of LB-100 on cancers overexpressing Mad2, tumor cell lines carrying Mad2-overexpressing mutations are tested. LB-100 inhibits the growth of the cancer cells in in vitro assays. […] Exposure to LB-100 reduces the expression of Mad-2 in the cells.
Mad2-overexpressing HeLa cells (HeLa Mad-2 O/E), osteosarcoma human cells (OS-17) and gastric cell lines (MKN28, MKN45, MGC803, and SGC7901) express high levels of Mad2 (Yu, L. et al. 2010). LB-100 inhibits the growth of the HeLa cells, OS-17, MKN28, MKN45, MGC803, and SGC7901 cells in vitro. […] Exposure to LB-100 reduces the expression of Mad-2 in all cell lines.

[3] = system: human glioblastoma cell line, U373; conditions: simultaneous exposure, US 2010/0029683 A1; cited from earlier work
advanced solid tumors = test: Phase I Part 1 single agent LB-100: tumor response (RECIST 1.1); type: in vivo, human
Text: Two dose regimens are explored.
Although response is not the primary endpoint of this study, patients with measurable disease will be assessed at baseline and during the study by standard criteria. Patients should be reevaluated after receiving 2 cycles of study therapy and then after every 2 cycles thereafter. In the event objective response (PR or CR) is noted, changes in tumor measurements must be confirmed by repeat assessments that should be performed at least 4 weeks after the criteria for response are first met.
Response and progression will be evaluated in this study using the international criteria (version 1.1) proposed by the Response Evaluation Criteria in Solid Tumors (RECIST) Committee [Eur J Cancer. 45 (2009) 228-247]. Changes in only the largest diameter (unidimensional measurement) of the tumor lesions are used in the RECIST 1.1 guidelines. Note: Lesions are either measurable or non-measurable using the criteria provided below.
• Complete Response (CR): Disappearance of all target lesions.
The patient's best overall response assignment will depend on findings of both target and non-target disease and will also take into consideration the appearance of new lesions. It is assumed that at each protocol-specified time point, a response assessment occurs. Table provides a summary of the overall response status calculation at each time point for patients who have measurable disease at baseline.
In the case of SD, follow-up measurements must have met the SD criteria at least once after study entry at a minimum interval at 5 weeks.

TNBC cell lines = test: Cytotoxicity against TNBC cells; type: cell-based; conditions: single agent; present-tense example
Method: LB-100 inhibits PP2A activity and is cytotoxic to TNBC cells. LB-100 synergizes with chemotherapeutic drugs to enhance cytotoxicity against TNBC cells. LB-100 also enhances the effects of chemotherapy in TNBC xenografts. LB-100 chemosensitizes doxorubicin and cisplatin to TNBC cells and/or has a synergistic cytotoxic effect with doxorubicin and/or cisplatin against TNBC cells.
Both doxorubicin (0.2 μg/ml) and cisplatin (2 μg/ml) in combination with LB-100 are cytotoxic to TNBC cell lines. The addition of LB-100 sensitizes TNBC cells to doxorubicin and cisplatin. TNBC cell lines include HCC1599, HCC1937, HCC1599, MDA-MB-468, HCC38, HCC70, HCC1806, HCC1187, DU4475, BT-549, Hs-578T, MDA-MB-231, MDA-MB-436, MDA-MB-157, MDA-MB-453, BT-20, and HCC1395.

[4] = system: male and female beagle dogs; test: GLP repeat dose toxicity study, IV daily x5 days
Method: In the GLP repeat dose dog study, LB-100 was administered by intravenous injection (slow bolus push) at dose levels of 0.15, 0.30, and 0.75 mg/kg daily for 5 consecutive days.
Multilead (I, II, III, aVR, aVL, aVF, and V2) ECGs were recorded for all animals prior to randomization (Day −8) and for all surviving animals on Day 4 (recorded approximately 2 to 4 hours following dose administration) and Day 27.
Blood pressure (systolic, diastolic, and mean arterial pressure) data were recorded for all animals once during the pretest period (Day −8) and for all surviving animals on study Day 4 (recorded approximately 2 to 4 hours following dose administration) and Day 27.

[5] = Solubility and stability of LB-100 solution; type: physicochemical; conditions: for stability of formulation: in monosodium glutamate, pH 10.5
Text: LB-100 is a water soluble enantiomeric zwitterion provided as a sterile solution for intravenous administration. […] Phosphate buffered saline (PBS) was used as the vehicle for LB-100 administration in preclinical efficacy studies and sodium bicarbonate 4.2% for injection was used as the vehicle for GLP toxicity studies.

[6] = system: patients with advanced solid tumors; conditions: in vivo
Method: This is a Phase I, open label, multicenter, two-part, dose-escalation study of LB-100 administered intravenously in patients with advanced solid tumors. Two dose regimens are explored. In the first regimen (Part 1), single agent LB-100 is given daily on Days 1 through 3 of every 21 day cycle. In the second regimen (Part 2), docetaxel-naïve patients are treated with LB-100 given daily on Days 1 through 3 in combination with a fixed dose of docetaxel (either 60 mg/m^2 or 75 mg/m^2) given on Day 2 of every 21 day cycle. Once the MTD of single agent LB-100 is reached, 3 additional patients are enrolled in an MTD confirmation cohort. Part 2 enrolls patients once the MTD of single agent LB-100 is determined in Part 1.
The starting dose of L8-100 for Part 1 is 0.25 mg/m^2. The starting dose of LB-100 for Part 2 is 2 dose levels below the MTD determined in Part 1, administered in combination with docetaxel 60 mg/m^2. Once the MTD of LB-100+docetaxel 60 mg/m^2 is determined, the dose of LB-100 is reduced 2 dose levels and administered in combination with docetaxel 75 mg/m^2. The dose of LB-100 is then be escalated to the full LB-100 dose (of the LB-100+docetaxel 60 mg/m^2 MTD) and administered in combination with docetaxel 75 mg/m^2. Once the MTD of the combination of LB-100+docetaxel (either 60 mg/m^2 or 75 mg/m^2) is reached, 3 additional patients are enrolled in an MTD/RD confirmation cohort.
LB-100 is administered in escalating dose levels. Enrollment in each dose cohort proceeds in the standard “3+3” schema. In each cohort, the first patient enrolled completes Cycle 1 treatment and safety monitoring prior to the enrollment of the second and third patients; the second and third patients may be enrolled simultaneously. DLTs are evaluated and recorded during the first 2 cycles of treatment.
Initially, the decision to escalate to the next dose level is be based on the observation of DLT during Cycle 1. If no DLT is observed, escalation proceeds to the next cohort. If a DLT is observed in Cycle 2 in the study, the escalation strategy is evaluated moving forward. Escalation continues until the maximum administered dose (MAD), maximum tolerated dose (MTD) and recommended dose (RD) are determined.
On Days 1, 2 and 3 of each cycle, LB-100 was infused over 15 minutes.
LB-100 was administered daily on Days 1 through 3 of every 21 day cycle to patients at the following dose levels:
Enrollment in each dose cohort will proceed in the standard “3+3” schema where 3 patients are initially enrolled per cohort; Scheme 2. In each cohort, the first patient enrolled will complete Cycle 1 treatment and safety monitoring prior to the enrollment of the second and third patients; the second and third patients may be enrolled simultaneously. Dose limiting toxicities (DLTs) will be evaluated and recorded during the first 2 cycles of treatment. Initially, the decision to escalate to the next dose level will be based on the observation of DLT during Cycle 1. If no DLT is observed, escalation will proceed to the next cohort. Note: if a DLT is observed in Cycle 2 in the study, the escalation strategy will be evaluated moving forward. If, however, DLT is observed in 1 of the 3 patients, an additional 3 patients must be enrolled at that dose. In a cohort of 6, if one patient has DLT, then dose escalation may proceed; if 2 or more patients have DLT, then that dose will be considered the maximum administered dose (MAD) and dose escalation will cease. The MTD is defined as one dose level below the MAD. Once the MTD of single agent LB-100 is reached, 3 additional patients will be enrolled in an MTD confirmation cohort. At least 6 patients must be treated at the MTD to determine the safety of that dose as a basis for the starting dose of LB-100 in Part 2 of this study.
The NCI Common Terminology Criteria for Adverse Events (CTCAE) Version 4.0 will be used to grade toxicity.

[7] = system: male and female Sprague Dawley rats; test: GLP repeat-dose toxicity study, daily IV slow bolus x5 days
[8] = Toxicokinetics in GLP repeat-dose rat study; conditions: Sprague Dawley, in vivo, iv, 0.75 mg/kg/day, study Day 4
Text: These changes were reversible. […] Inflammation was often accompanied by mesothelial hypertrophy.

Akt = conditions: Lu et al. 2009; cited from earlier work

CN1CCN(C(=O)C2C(C(=O)O)[C@H]3CC[C@@H]2O3)CC1 (mixture of isomers) [LB-100, 3-(4methylpiperazine-carbonyl)-7-oxalobicyclo[2.2.1]heptane-2-carboxylic acid]
nephrosis severity (male Fischer rats; 0.75 mg/kg/day): mild | no-observed-adverse-effect-level (NOAEL) (male Fischer rats; 0.5, 0.75 and 1.5 mg/kg/day x4 days): not established | heart toxicity (male Fischer rats; 0.75 and 1.5 mg/kg/day groups): epicardial hyperplasia with inflammation primarily on the epicardium of the atria | MTD (male Fischer rats; IV daily for 4 days, converted dose): about 4.5 mg/m^2 | unscheduled deaths (male Fischer rats; any treatment group): no unscheduled deaths | dose-limiting toxicities (male Fischer rats; rat, in vivo, iv): Kidney, heart, femoral bone, liver and urinary bladder toxicity | MTD at 4 days [1]: 0.75 mg/kg/day | possible test article-related clinical observation (beagle dogs; 1.0 mg/kg, one female, study Day 13): intermittent tremors | survival (beagle dogs; 0.1-1.0 mg/kg): no LB-100-related effects on survival | body weight gain and food consumption (beagle dogs; 0.5 and 1.0 mg/kg, females): lower body weight gains and food consumption | no-observed-effect level (NOEL) (beagle dogs; IV every 4 days x4 doses): 0.25 mg/kg | signs of toxicity (beagle dogs; dog, in vivo, 1 mg/kg): almost no signs of toxicity | AUC(0-t) (in vivo; female): 335 ng·h/mL | AUC(0-t) (in vivo; male): 267 ng·h/mL | cytotoxicity [2]: Dose-dependent cytotoxicity | cytotoxic effect of cisplatin [3]: enhanced | cytotoxic effect of doxorubicin [3]: enhanced | cytotoxic effect of taxol [3]: enhanced | cytotoxic effect of temozolomide [3]: enhanced | duration of stable disease (advanced solid tumors; Patient 10, pancreatic cancer, 0.83 mg/m^2): 39 weeks | time remained stable since starting LB-100 (advanced solid tumors; Patient 10, pancreatic cancer, interim (8 cycles)): 6 months | cycles on treatment with stable disease (advanced solid tumors; Patient 17, metastatic thymoma, DL5 1.75 mg/m^2): 7 cycles and 8 cycles | cycles of stable disease (advanced solid tumors; breast, ovarian, carcinoid and testicular cancer patients): 4-6 cycles | cytotoxicity to TNBC cells (TNBC cell lines): cytotoxic | tolerability ([4]; 0.15 mg/kg/day): well tolerated | test article-related lethality, animals ([4]; 0.75 mg/kg/day group, before fourth dose): 2 of 10 | Highest Non-Severely Toxic Dose (HNSTD) ([4]; daily IV x5 days): 0.15 mg/kg | ECGs ([4]; dog, in vivo): within normal limits | blood pressure ([4]; dog, in vivo): unaffected | water solubility ([5]; enantiomeric zwitterion): water soluble | stability of formulation ([5]; refrigerated temperatures): at least 8 hours | stability of formulation ([5]; −20° C.): stable for months | racemization of separated enantiomers ([5]; in solution): racemize rapidly | adverse events ([6]; human): No adverse events attributable to LB-100 | dyspnea ([6]; human): grade 1 | tolerability ([6]; human): without any symptoms attributable to LB-100 | vomiting, related to LB-100 ([6]; human): grade 3 | adverse events attributed to a bleeding rectal mass ([6]; human, 1 cycle): grade 3 anemia and grade 2 weakness | neuropathy, possibly related to LB-100 ([6]; human, 4 cycles): Grade 1 | adverse events [6]: No new adverse events | dose limiting toxicity [6]: no dose limiting toxicity | relation of pulmonary embolism to treatment [6]: not related | epicardium and subepicardium of atria ([7]; 0.5, 0.75, 1.25 mg/kg/day males, 1.25 mg/kg/day females): Minimal to mild subacute inflammation | kidney finding ([7]; 0.75 and 1.25 mg/kg/day, males and females): adverse, test article-related nephrosis of the kidneys | test article-related effects on urinalysis parameters ([7]; Day 5, reversible): observed in all treatment groups | severely toxic dose in 10% of the animals (STD 10) ([7]; daily IV x5 days): 0.75 mg/kg/day | AUC(0-t) ([8]; female, females): 691 ng·h/mL | C0 ([8]; female, females): 2350 ng/mL | AUC(0-t) ([8]; male, males): 596 ng·h/mL | C0 ([8]; male, males): 1800 ng/mL

CCN1CCCC1CNC(=O)c1cc(S(=O)(=O)CC)c(NC)cc1OC (stereo not drawn) [LB-102]
phosphorylation of Akt (Akt): increased
